Assay results taken from US6967196B1, “Sulfonamide compounds and uses thereof” (Bristol-Myers Squibb Company, priority 1999, dated 2005).
Where two headings read alike, the source gives them in different places. Values belong to the compound of their own block, whether it stands above or below them.

System: amyloid β production in transfected H4 (human neuroglioma) cells stably expressing APP constructs
Experiment: In vitro cell-based assay of inhibitors of amyloid β production (ELISA)
Conditions: amyloid β in medium by ELISA, read-out: ACTIVITY (IC50, inhibition of amyloid β production)
Method in brief: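 Cells expressing wild-type or variant APP were plated ≥6 h before medium was replaced with compound-containing medium (initial screen 10-100 μM) and incubated ~16 h. Secreted Aβ in medium was quantified by sandwich ELISA (C-terminal-specific mouse monoclonal capture, N-terminal rabbit polyclonal detection) against an Aβ standard curve.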

[1] = transfected H4 cells stably expressing APP constructs, approximately 16 hours incubation
[2] = Homo sapiens, 16 h, transfected H4 cells expressing APP, approximately 16 hours incubation
[3] = Homo sapiens, 16 h, transfected H4 cells stably expressing APP constructs, approximately 16 hours incubation
[4] = transfected H4 cells stably expressing APP, approximately 16 hours incubation

Compound: O=S(=O)(c1ccc(Cl)cc1)N(Cc1ccccc1O)c1ccccc1 [Example 1081, 4-chloro-N-(2-hydroxybenzyl)-N-phenylbenzenesulfonamide]
IC50 (Homo sapiens, 16 h, transfected H4 cells stably expressing APP, approximately 16 hours incubation): > 10000 nM

Compound: C[C@H](CCCN(C)S(C)(=O)=O)N(c1cc(Cl)ccc1F)S(=O)(=O)c1ccc(Cl)cc1 [Example 1101]
IC50 [1]: ≤ 25 nM

Compound: COC(=O)C1SCCN1CCCC[C@@H](C)N(c1cc(Cl)ccc1Cl)S(=O)(=O)c1ccc(Cl)cc1 (stereo partly drawn) [Example 1117, 4-chloro-N-(2,5-dichlorophenyl)-N-[5-(2-methoxycarbonyl-3-thiazolidinyl)-1(R)-methylpentyl]benzenesulfonamide]
IC50 [3]: 25 to 50 nM

Compound: C[N+]1(CCCOc2ccccc2CN(c2cc(Cl)ccc2Cl)S(=O)(=O)c2ccc(Cl)cc2)CCCCC1 [Example 1038, 1-{3-[2-((2,5-dichloro[(4-chlorophenyl)sulfonyl]anilino}methyl)phenoxy]propyl}-1-methylpiperidinium iodide]
IC50 [4]: > 500 nM

Compound: C[C@H](CCCS(C)(=O)=O)N(c1cc(F)ccc1F)S(=O)(=O)c1ccc(Cl)cc1 [Example 1170, 4-chloro-N-[2,5-difluorophenyl]-N-[1(R)-methyl-(4-methylsulfonyl)butyl]benzenesulfonamide]
IC50 [1]: ≤ 25 nM

Compound: N-{3-[2-({[(4-chlorophenyl)sulfonyl]-2,5-difluoroanilino}methyl)phenoxy]propyl}-3-fluoro-N-methylbenzamide [Example 862]
IC50 [4]: 100 to 500 nM

Compound: 4-chloro-N-(2,5-dichlorophenyl)-N-[5-[[2-[(methylsulfonyl)-1-piperidinyl]-1(R)-methylpentyl]benzenesulfonamide [Example 1116]
IC50 [1]: 25 to 50 nM

Compound: CONC(=O)COc1ccccc1C(C)N(c1cc(F)ccc1F)S(=O)(=O)c1ccc(Cl)cc1 (stereo not drawn) [Example 382, [2-(1-{[(4-Chlorophenyl)sulfonyl]-2,5-difluoroanilino}ethyl)phenoxy]-N-methoxyacetamide]
IC50 (transfected H4 cells stably expressing APP, approximately 16 hours incubation, Table B): 50 to 100 nM

Compound: CCCCCCCCCCCCCCCCCC(=O)N(C)CCOc1ccccc1C(C)N(c1cc(F)ccc1F)S(=O)(=O)c1ccc(Cl)cc1 (stereo not drawn) [Example 1098]
IC50 [1]: > 10000 nM

Compound: C[C@H](c1ccc(F)cc1CCCC(=O)O)N(c1cc(F)ccc1F)S(=O)(=O)c1ccc(Cl)cc1 [Example 1068, 4-[2-((1R)-1-{[(4-chlorophenyl)sulfonyl]-2,5-difluoroanilino}ethyl)-5-fluorophenyl]butanoic acid]
IC50 [4]: > 500 nM

Compound: C[C@H](CCC[S+](C)[O-])N(c1cc(Cl)ccc1CO)S(=O)(=O)c1ccc(Cl)cc1 (stereo partly drawn) [Example 1224, 4-chloro-N-[5-chloro-2-(hydroxymethyl)phenyl]-N-[1(R)-methyl-(4-methylsulfinyl)butyl]benzenesulfonamide]
IC50 [1]: ≤ 25 nM

Compound: C[C@H](c1ccc(F)cc1COC(=O)NCc1ccco1)N(c1cc(F)ccc1F)S(=O)(=O)c1ccc(Cl)cc1 [Example 691, 2-((1R)-1-{[(4-chlorophenyl)sulfonyl]-2,5-difluoroanilino}ethyl)-5-fluorobenzyl 2-furylmethylcarbamate]
IC50 (transfected H4 cells stably expressing APP, approx. 16 h incubation): 100 to 500 nM

Continued, values first:

IC50 [2]: > 500 nM
Compound: C[C@H](C(=O)NCc1cc(Cl)cc(Cl)c1)N(c1cc(Cl)ccc1F)S(=O)(=O)c1ccc(Cl)cc1 [Example 1365]

IC50 [3]: 100 to 500 nM
Compound: C[C@H](CCCS(=O)(=O)O)N(c1cc(Cl)ccc1CO)S(=O)(=O)c1ccc(Cl)cc1 [Example 1231, (4R)-4-[N-[5-chloro-2-(hydroxymethyl)phenyl][(4-chlorophenyl)sulfonyl]amino]pentylsulfonic acid]

IC50 [2]: ≤ 25 nM
Compound: CC(CCOC(=O)NCCn1ccnc1)N(c1cc(Cl)ccc1CO)S(=O)(=O)c1ccc(Cl)cc1 (stereo not drawn) [Example 1291]

IC50 [2]: 100 to 500 nM
Compound: C[C@H](C(=O)NCC1CCCO1)N(c1cc(Cl)ccc1F)S(=O)(=O)c1ccc(Cl)cc1 (stereo partly drawn) [Example 1321]

IC50 [2]: > 500 nM
Compound: C[C@H](C(=O)NCCOc1ccccc1)N(c1cc(Cl)ccc1F)S(=O)(=O)c1ccc(Cl)cc1 [Example 1318]

IC50 [2]: > 500 nM
Compound: C[C@H](C(=O)NCCN1CCOCC1)N(c1cc(Cl)ccc1F)S(=O)(=O)c1ccc(Cl)cc1 [Example 1301]
